Measurements: US20030133972A1, “Targeted multivalent macromolecules” (priority 2000, published 2003)
Where “and” joins values, the source holds several entries; their conditions need not be identical. Equal values may be shown once. Values belong to the compound of their own block, whether it stands above or below them.

Legend:
VEGFR1 = VEGFR1 (Homo sapiens, UniProt P17948); details: affinity of VEGFR1 for VEGF; cited from earlier work
[1] = system: αvβ3 positive M21 Melanoma cells binding to vitronectin coated plates; test: Cell adhesion inhibition assay on vitronectin coated plates; format: cell-based, human; details: 1 h incubation, PVs as equivalents of compound 10 on the surface, read-out: Cell Adhesion Assay IC50 (μM of 10 on NPs)
αvβ3 integrin = αvβ3 integrin (Homo sapiens, UniProt P05106+P06756); test: Competitive integrin binding assay (PVs mixed with free ligand 10); details: read-out: concentration of free ligand 10 to achieve 50% inhibition of PV binding; against PV1 carrying the equivalent of 0.5 μM of 10 on its surface
[2] = system: collagen receptors (α2β1 integrins); test: Cell adhesion assay on plates coated with collagen; format: cell-based
Protocol: The cell adhesion assay was also performed with plates coated with collagen. Collagen binds to collagen receptors (α2β1 integrins) but not αvβ3 integrins. […] Without being bound by theory, it is believed that the observed inhibition of cell adhesion by PV-integrin agonist is due to the PV preventing interaction of collagen and its receptor by steric hindrance, due to the large size of the PV. Thus, not only does the PV targeted to a specific receptor bind to the receptor on the cell surface, but it blocks access to adjacent receptors due to its steric bulk.

[3] = system: MS1 mouse endothelial pancreatic islet cells; test: In vitro cell proliferation assay (crystal violet), endothelial cells; format: cell-based; details: murine endothelial cells
Protocol: The effect of free doxorubicin or liposome-encapsulated doxorubicin on the cells was assayed calorimetrically by crystal violet staining method with slight modification. Mouse endothelial cells (ATCC# CRL-2279) and mouse melanoma cells (M2) were seeded in 96well flat-bottomed microtitre plates. The effect of the vesicles on cell proliferation was determined with cells near confluence (about 80%). The medium in each well was replaced with 100 ul of culture medium containing 250 ug/ml of vesicles containing doxorubicin. The mouse endothelial and melanoma cells were incubated for 1 hour at 37° C. and 5% CO2. After 1 hour incubation, the drug was removed, and compete medium that was lacking drug was added, and the cells were incubated for 48 hours at 37° C. and 5% CO2. The experiment was performed in duplicate. At the end of the incubation period, the cells were washed once with PBS and the cultures were fixed by 70% ethanol overnight. Next, the cells were stained with 100 ul of 0.1% crystal violet in 10% ethanol for 10 minutes at room temperature, and the cells were gently washed with water for 5 times. Next, 100 ul of 1% SDS was added to each well and the plates were placed on an orbital shaker for 15 minutes. After the crystal violet in cell membrane was removed with SDS, the plate was read at 590 nm. Finally, cell viability was evaluated as the mean value of optical density.

Compound: VEGF
Kd (VEGFR1): 0.001 to 0.02 nM

IC50 [1]: 64 µM and 63.9 µM
IC50 (αvβ3 integrin): 65 µM
Compound: 4-[2-(3,4,5,6-Tetrahydropyrimidin-2-ylamino)ethyloxy]-benzoyl-2-(S)amino Ethylsulfonylamino-β-alanine [Compound 10]
inhibition of cell adhesion to collagen coated plates [2]: neither the PV alone nor the agonist alone inhibited cell adhesion

Compound: COc1cccc2c1C(=O)c1c(O)c3c(c(O)c1C2=O)C[C@@](O)(C(=O)CO)C[C@@H]3O[C@H]1C[C@H](N)[C@H](O)[C@H](C)O1 [Doxorubicin, doxorubicin]
effect on cell proliferation [3]: significant reductions in cell proliferation
